# Laboratory results: US20240099944A1, “Stable Skin Care Compositions Containing a Retinoid” (priority 2022, published 2024)
# Assay: Yellow discoloration (b-value) by Color Test Method, accelerated stability 60° C. for two weeks
# Format: physicochemical
# Conditions: away from direct light, Example 2 with additional ingredient compared to Example 2
# Description: This test was performed under accelerated stability conditions of 60° C., away from direct light for two weeks and the samples were stored in containers that limited the free flow of oxygen. […] The b-value was determined by the Color Test Method, described hereafter.
# In Example 2, the DMDM hydantoin and iodopropynyl butylcarbamate preservative is replaced with a preservative system comprising hydroxyacetophenone and phenoxyethanol.
# To measure the color of the compositions of the present invention, approximately 8 mL of the product to be tested is transferred into a petri dish (35×10 mm disposable) using a syringe. The Petri dish is then placed on the black half of a standard opacity chart (Form N2A, Leneta Company of Manwah, NJ or the equivalent thereof, of which the top half is black and the bottom half is white). The color (L, a, and b values) of the product in the petri dish is then measured using an integrated sphere spectrophotometer with settings selected to exclude specular reflection. The value for “a” correlates to a value along the red-green (horizontal) axis, and the value for “b” correlates to a value along the blue-yellow (vertical) axis. […] A more positive or negative value represents a more intense color. […]
smiles,measurement,value
O=S([O-])[O-].[Na+].[Na+] [sodium sulfite],b-value vs. Example 2 (Control),dramatically reduced the composition's b-value
